Assay results as given in patent publication US20170260169A1, “INHIBITORS FOR STEROID RESPONSE ELEMENTS AND RNA POLYMERASE II AND RELATED METHODS” (priority 2007, published 2017).

Legend:
[1] = system: PSA protein secretion by LNCaP cells; assay: Secreted PSA protein by ELISA, LNCaP cells; assay type: cell-based; details: after DHT stimulation, compared with 2 or untreated control
Description: LNCaP cells (ATCC) were plated in 24-well plates at a density of 40-50×10^3 cells per well (80-100×10^3 cells per ml) in RPMI medium 1640 (ATCC) supplemented with 10% FBS (Irvine Scientific, Santa Ana, Calif.). After 72 h, the medium was replaced with RPMI medium 1640 containing 10% charcoal stripped FBS with or without polyamides at the designated concentrations. Cells were grown for an additional 48 h and then treated with 1 nM DHT for 16 h. When appropriate, bicalutamide was added 2 h before DHT stimulation. Isolation of RNA and cDNA synthesis was performed as described (21). Quantitative real-time RT-PCR was performed with SYBR Green PCR Master Mix (Applied Biosystems, Foster City, Calif.) on an ABI 7300 instrument. PSA mRNA was measured relative to β-glucuronidase as an endogenous control. Primer sequences are available upon request. Cell-culture supernatants were collected for an ELISA (R & D Systems, Minneapolis, Minn.) to measure PSA protein according to the manufacturer's protocol.

[2] = system: FKBP5 mRNA expression in LNCaP cells; assay: DHT-induced FKBP5 mRNA in LNCaP cells; assay type: cell-based
[3] = system: DNA damage markers (γH2A.X, ATM, DNA-PKcs, p53, Chk2); assay: Immunoblot of DNA damage markers, p53 and PARP in LNCaP cells; assay type: cell-based
Description: Samples for immunoblot analysis were prepared by plating LNCaP or DU145 cells at 1 million cells per 10 cm plate. Cells were allowed to adhere for 24-36 hr prior to incubation with compound. After the appropriate incubation time cells were washed once with ice cold PBS and harvested in ice cold 125 μL lysis buffer (50 mM Tris-HCl pH 7.4, 150 mM NaCl, 1 mM EDTA, 1% Triton X100) containing protease inhibitor cocktail (Roche), 1 mM PMSF (Sigma), and phosphatase inhibitors (Sigma). Samples were allowed incubate on ice for 10 min with vortexing once every 3 min. Cellular debris was pelleted by spinning at 14,000 rpm for 15 min to collect the supernatant. Samples were then quantified for protein content with the Bradford assay (Bio-rad) and boiled with 4× sample buffer (Li-Cor) for 5 min. Protein electrophoresis was performed in 4-20% precast Tris glycine SDS gels (Bio-rad) and transferred to PVDF membranes. Membrane blocking was done with Odyssey Blocking Buffer (Li-Cor). The following antibodies used to probe changes in protein levels or phosphorylation states: RBP1 (Santa Cruz Biotechnology, N20), p53 (Santa Cruz Biotechnology, DO1), phospho-Chk2-Thr68 (Cell Signaling Technology), Phospho-p53-Ser15 (Cell Signaling Technology), phosphor-H2A.X-Ser139 (Cell Signaling Technology), phosphor-ATM-Ser1981 (Abcam), phosphor-DNA-PKcs-Ser2056 (Abcam), and […] (Abcam). […]

[4] = Serum circulation after subcutaneous injection in C57BL/6 mice; assay type: in vivo; details: 120 nmol, 5% DMSO/PBS
Description: To investigate if polyamide 77 could be detected in peripheral blood after SC injections, 120 nmol of 77 (in 5% DMSO/PBS) was injected into the right flank of four C57BL/6 mice. Blood was collected from anesthetized mice via retroorbital collection at 5 minutes, 4 h, and 12 h after injection, then processed by methods previously described and analyzed by HPLC (35). For measurement of serum PSA (KLK3) and uric acid, blood was collected from anesthetized mice via retroorbital collection at experimental endpoint and serum was separated from blood by centrifugation. Serum PSA (KLK3) was measured by ELISA (R&D systems) according to manufacturer's instructions. Uric acid was measured as described (36).
We synthesized four structurally related polyamides (FIG. 28) that have an identical Py-Im sequence ImPyPyPy-γ-ImPyPyPy-NHMe-IPA.

[5] = system: duplex DNA containing the target site 5′-WGWWCW-3′; assay: Thermal denaturation assay of DNA duplexes; assay type: binding; details: duplex 5′-CGATGTTCAAGC-3′
Description: Polyamides 77 and 85 were incubated with duplex DNA 5′-[…]-3′ (SEQ ID NO:36), which contains the predicted target site for these compounds (underscore). Melting temperature analyses were performed on a Varian Cary 100 spectrophotometer as described (46). Melting temperatures were defined as a maximum of the first derivative of absorbance at 260 nm over the range of temperatures.
Thermal stabilization of the DNA oligo 5′-[…]-3′ (SEQ ID NO:37) by 77-80 (target sequence underlined) was determined as previously described (26).

[6] = system: RPB1; assay: RPB1 protein ELISA in LNCaP cells; assay type: cell-based; details: polyamide 10 μM 72 hr; doxorubicin 1 μM 24 hr
Description: […] Cells treated with DMSO vehicle and 1 μM doxorubicin for 24 h were used as control. Cellular RBP1 levels were determined by a RPB1 specific ELISA kit (Cusabio Life Sciences) according to manufacturer's instructions. Total cellular p53 protein level was determined with a pan-p53 ELISA kit (Roche) according to manufacturer's instructions. Assays were performed in biological triplicates.

[7] = system: p53; assay: p53 protein ELISA in LNCaP cells; assay type: cell-based; details: polyamide 10 μM 72 hr; doxorubicin 1 μM 24 hr
Description: Cellular levels of RPB1 and p53 protein in LNCaP cells after treatment with 10 μM 3 for 72 h were determined by ELISA. Cells treated with DMSO vehicle and 1 μM doxorubicin for 24 h were used as control. Cellular RBP1 levels were determined by a RPB1 specific ELISA kit (Cusabio Life Sciences) according to manufacturer's instructions. Total cellular p53 protein level was determined with a pan-p53 ELISA kit (Roche) according to manufacturer's instructions. Assays were performed in biological triplicates.

[8] = cited from earlier work
[9] = Liver microsomal stability, human; details: 1 μM, Human, 1 hr at 37° C., 1 mg/ml microsomes
Description: Briefly, each polyamide was incubated with 1 mg/ml human or mouse microsomes at 37° C. The reaction was incubated in 100 mM KH2PO4, 2 mM NADPH, 3 mM MgCl2 at pH 7.4. Samples were also incubated in the absence of NADPH to detect NADPH-free degradation. After 60 min the samples were mixed with an equal volume of ice cold methanol stop solution. The mixture was allowed to sit on ice for at least 10 min and mixed with an equal volume of water. The samples were then centrifuged to remove the precipitates and the samples were analyzed by LC/MS/MS. Data represents % remaining by comparing with time zero concentration. The experiments were performed in duplicate.

[10] = Liver microsomal stability, mouse; details: 1 μM, Mouse, 1 hr at 37° C., 1 mg/ml microsomes

With CN(CCCNC(=O)c1cccc(C(=O)O)c1)CCCNC(=O)c1cc(NC(=O)c2cc(NC(=O)c3cc(NC(=O)c4nc(NC(=O)[C@H](N)CCNC(=O)c5cc(NC(=O)c6cc(NC(=O)c7cc(NC(=O)c8nccn8C)cn7C)cn6C)cn5C)cn4C)cn3C)cn2C)cn1C [Polyamide 1, ImPyPyPy-2-(R)H^2Nγ-ImPyPyPy-NHMe-IPA] the “supernatant concentrations of PSA protein” value [1] was “reduced”, the “inhibition of DHT-induced expression of FKBP5” value [2] was “≈ 60%” and the “cellular markers of DNA damage (phosphorylation)” value [3] was “did not induce cellular markers of DNA damage”. For the same molecule, the “p53 accumulation and PARP cleavage” value [3] was “modest accumulation of p53 and PARP cleavage were observed”, the “circulation after SC injection” value [4] was “detectable circulation” and the “DNA thermal stability analysis” value [5] was “comparable DNA binding”. The RPB1 protein [6] was “decreases”, the “cellular level of p53 protein” value [7] was “increases” and the “animal toxicity after single subcutaneous administration” value ([8]; female C57BL/6J mice, 77 at 2.5 and 5 mg/kg, 80 at 2.3 and […]) was “did not adversely affect the animals”. For the same molecule, the weight loss ([8]; female mice, 10 mg/kg SC) was “greater than 15%”, the doses without toxicity ([8]; mouse, in vivo) was “less than 10 mg/kg” and the “Mean remaining parent NADPH-free” value [9] was 92.3%. The “Mean remaining parent with NADPH” value [9] was 96.9%, the “Mean remaining parent NADPH-free” value [10] was 96.8% and the “Mean remaining parent with NADPH” value [10] was 95.2%.
